Laboratory results as given in patent EP0364581A1, “METHOD OF STERILIZING PLANT POLLEN” (VSESOJUZNY NAUCHNO-ISSLEDOVATELSKY INST. SELSKOKHOZYAISTV. …, priority 1988, dated 1989).
Where two headings read alike, the source gives them in different places.

Assays:
[1] = tested on: Sommerweizens Sorte Rodina; test: field test of gametocidal activity (sterilisation of anthers); assay type: in vivo, Sommerweizen; settings: V. und VI. Periode, 1%ige wäßrige Emulsion, 6 kg/ha; for Prozentsatz des Ansetzens der Körner bei freier Bestäubung: control = 100
Excerpt: (§1) Die gametozide Aktivität der erfindungsgemäßen Sterilisationsmittel war in Feldversuch in verschiedenen bodenklimatischen Zonen mit Teilstücken von 10 m^2 Größe in drei-- bis viermaliger Wiederholung nachgewiesen. Jedes Sterilisationsmittel wurde mindestens 5 Jahre lang geprüft.
(§2) Die Entwicklung der Perioden der Organogenese wird zytologisch überwacht. Die Behandlung von Pflanzen mit dem Sterilisationsmittel erfolgt am Anfang der fünften Periode der Organogenese nach Kupermann.
(§3) Mit dem Ahrenschieben verwirklicht man die Isolierung von Hauptähren und anderen Stockwerken in Pergamentbeuteln. Bei Weizen und Tritikale werden Einzelisolatoren verwendet. Bei Roggen schließt man je 1 Ähre von 5 bis 7 verschiedenen nebeneinander befindlichen Pflanzen in einen gemeinsamen Isolator ein. Bei Hirse wird jede Rispe getrennt isoliert. Der Sterilitätsprozentsatz (X) für Weizen, Roggen, Tritikale und Hirse wird nach der Formel [formula]
(§4) Samen von unbehandelten Kontrollpflanzen ermittelt.
(§5) Die Kornzahl in nicht isolierten Ähren von Kontrollpflanzen wird bedingt für 100% Ansetzen bei freier Bestäubung angenommen.
(§6) Um zuverlässige Angaben zu erhalten, verwendet man 20 bis 25 Isolatoren jeder Wiederholung für Weizen und Tritikale, 10 bis 15 Isolatoren jeder Wiederholung für Roggen und Hirse.
Pflanzen des Sommerweizens Sorte Rodina werden in der V. und VI. Periode der Organogenese (nach Kupermann) mit einer l%igen wäßrigen Emulsion von Ammoniumsalz der 2-Methyl-3-zyklohexenkarbonsäure, Phthalsäuredihexylester, Phthalsäurediisobutylester behandelt. Die Emulsion enthält 0,01 Masse% Dodezysulfat und 0,1 Masse% C12-C14--Kalziumalkylbenzolsulfonat. Der Verbrauch an Präparat beträgt 6 kg/ha. Als Kontrolle dienen Pflanzen, behandelt mit einem Verdünner ohne Sterilisationsmittel.

[2] = tested on: diploidem Roggen Sorte Belorusskaya 23; test: as above; assay type: in vivo; settings: V. und VI. Periode, 1%ige wäßrige Emulsion, 6 kg/ha; for Prozentsatz des Ansetzens der Körner bei freier Bestäubung: control = 100
Excerpt: as §1, §2, §3, §4, §5, §6
Pflanzen von diploidem Roggen Sorte Belorusskaya 23 werden in der V. und VI. Periode der Organogenese (nach Kupermann) mit einer 1%igen wäßrigen Emulsion von Phthalsäuredibutylester, Kaliumsalz der 2-Methyl-3-zyklohexenkarbonsäure behandelt. Die Emulsion enthält 0,01 Masse% Dodezylsulfat, und 0,1 Masse% C12-C14-Kalziumalkylbenzolsulfonat.
Der Verbrauch an Präparat beträgt 6 kg/ha. Als Kontrolle dienen Pflanzen, behandelt mit einem Verdünner ohne Sterilisationsmittel.

[3] = tested on: Sonnenblume Sorte Peredovik; test: field test of chemical sterilisation of sunflower pollen; assay type: in vivo; settings: V. Periode
Excerpt: as §1, §2
(§7) Zur Kontrolle der chemischen Sterilisation des Sonnenblumenpollens werden für jede Verbindung 45 behandelte Pflanzen jeder Wiederholung benutzt, wobei 15 Pflanzen zwecks Selbsbestäubung isoliert werden, Blutenkörbchen von 15 anderen Pflanzen mit einem Pollengemisch, gesammelt von 20 bis 25 behandelten isolierten Körbchen, bestäubt werden, und 15 Pflanzen für freie Bestäubung gelassen werden, damit das Ansetzen von Achänen mit dem Pollen der Vaterform kontrolliert werden kann.
(§8) Man beurteilt die Pollensterilität von Pflanzen der Sonnenblume nach der Pollenfertilität und -keimfahigkeit, nach den morphologischen Besonderheiten von Spermien und nach der Fähigkeit von Achänen zum Ansetzen bei der Bestäubung der behandelten isolierten Pflanzen mit dem Pollen der unbehandelten väterlischen Form. Die Läbensfähigkeit der Eizelle wird nach der Samenbildung bei behandelten Pflanzen bei freier Bestäubung der väterlichen Form bestimmt.
Pflanzen der Sonnenblume Sorte Peredovik werden in der V. […] Die Emulsion enthält 0,01 Masse% Dimethylsulfoxid und 0,1 Masse% C12-C14-Kalziumalkylbenzolsulfonat. Die Sonnenblume Linie VK-119 werden mit einer 0,2%igen wäßrigen Emulsion von Phthalsäuredibutylester, 0,1%igen wäßrigen Emulsion von Phthalsäurediäthylester, Kaliumsalz der 2-Methyl-3-zyklohexenkarbonsäure, 1%igen wäßrigen Emulsion von Natriumsalz der. 2-Methyl-3-zyklohexen- karbonsäure und 0,01%igen wäßrigen Emulsion von 2-Methyl--3-zyklohexenkarbonsäuremethylester behandelt. Die Emulsion enthält 0,01 Masse% Dimethylformamid und 0,1 Masse% C12-C14--Kalziumalkylbenzolsulfonat.
(§9) Als Kontrolle in allen Fällen dienen Pflanzen, behandelt mit einem Verdünner ohne Sterilisationsmittel.

Sonnenblume Linie VK-119 = test: as above; assay type: in vivo; settings: Linie BK-119
Excerpt: as §1, §2, §7, §8
Pflanzen der Sonnenblume Sorte Peredovik werden in der V. Periode der Organogenese (nach Kupermann) mit einer 0,5%igen wäßrigen Emulsion von Phthalsäuredibutylester, Phthalsäurediäthylester, Kaliumsalz der 2-Methyl-3-zyklohexenkarbonsäu- re, Natriumsalz der 2-Methyl-3-zyklohexenkarbonsäure sowie mit einer 0,05%igen wäßrigen Emulsion von 2-Methyl-3-zyklo- hexenkarbonsäuremethylester behandelt. Die Emulsion enthält 0,01 Masse% Dimethylsulfoxid und 0,1 Masse% C12-C14-Kalziumalkylbenzolsulfonat. Die Sonnenblume Linie VK-119 werden mit einer 0,2%igen wäßrigen Emulsion von Phthalsäuredibutylester, 0,1%igen wäßrigen Emulsion von Phthalsäurediäthylester, Kaliumsalz der 2-Methyl-3-zyklohexenkarbonsäure, 1%igen wäßrigen Emulsion von Natriumsalz der. 2-Methyl-3-zyklohexen- karbonsäure und 0,01%igen wäßrigen Emulsion von 2-Methyl--3-zyklohexenkarbonsäuremethylester behandelt. Die Emulsion enthält 0,01 Masse% Dimethylformamid und 0,1 Masse% C12-C14--Kalziumalkylbenzolsulfonat.
as §9

Sonnenblume Linie BK-373 = test: as above; assay type: in vivo
Excerpt: as §1, §2, §7, §8
Die Sonnenblume Linie BK-373 werden mit einer 0,2%igen wäßrigen Emulsion von Phthalsäuredibutylester, 0,1%igen wäßrigen Emulsion von Kaliumsalz der 2-Methyl-3-zyklohexylkar- bonsäuremethylester und 0,2%igen wäßrigen Emulsion von Phthalsäurediäthylester behandelt. Die Emulsion enthält 0,01 Masse% Dodezylsulfat und 0,1 Masse% C12-C14-Kalziumalkylbenzolsulfonat.
as §9

[4] = acute toxicity in animals; set-up: species or system weiße Ratten; settings: rat, in vivo
Excerpt: (§10) Alle erfindungsgemäßen Karbonsäurederivate, die als Sterilisationsmittel zur Verwendung kommen, waren auf die akute Toxizität im Tierversuch geprüft. Die Prüfergebnisse haben ergeben, daß die angegebenen Verbindungen von schwacher oder mittlerer Toxizität sind.

[5] = acute toxicity in animals; settings: mouse, in vivo, po; weiße Mäuse; einmalige Einführung in den Magen
Excerpt: as §10

[6] = Präparat 0,05 Masse%, 0,3 kg/ha
[7] = Präparat 0,01 Masse%, 0,06 kg/ha

CC1C=CCCC1C(=O)O.N (stereo not drawn) [Beispiel 34, Ammoniumsalz der 2-Methyl-3-zyklohexenkarbonsäure]
Kornzahl der Ähre bei freier Bestäubung [1]: 30,8
Kornzahl der Ähre im Isolator [1]: 0,0
Prozentsatz der Sterilität [1]: 100,0%
Prozentsatz des Ansetzens der Körner bei freier Bestäubung [1]: 84,1%

CCCCCCOC(=O)c1ccccc1C(=O)OCCCCCC [Beispiel 35, Phthalsäuredihexylester]
Kornzahl der Ähre bei freier Bestäubung [1]: 33,6
Kornzahl der Ähre im Isolator [1]: 0,0
Prozentsatz der Sterilität [1]: 100,0%
Prozentsatz des Ansetzens der Körner bei freier Bestäubung [1]: 91,8%

CC(C)COC(=O)c1ccccc1C(=O)OCC(C)C [Beispiel 36, Phthalsäurediisobutylester]
Kornzahl der Ähre bei freier Bestäubung [1]: 31,7
Kornzahl der Ähre im Isolator [1]: 0,0
Prozentsatz der Sterilität [1]: 100,0%
Prozentsatz des Ansetzens der Körner bei freier Bestäubung [1]: 86,6%

CCCCOC(=O)c1ccccc1C(=O)OCCCC [Beispiel 74, Phthalsäuredibutylester]
Kornzahl der Ähre bei freier Bestäubung [2]: 42,5
Kornzahl der Ähre im Isolator [2]: 0,0
Prozentsatz der Sterilität [2]: 100,0%
Prozentsatz des Ansetzens der Körner bei freier Bestäubung [2]: 94,9%

CC1C=CCCC1C(=O)O (stereo not drawn) [Beispiel 75, Kaliumsalz der 2-Methyl-3-zyklohexenkarbonsäure]
Kornzahl der Ähre bei freier Bestäubung [2]: 43,0
Kornzahl der Ähre im Isolator [2]: 0,0
Prozentsatz der Sterilität [2]: 100,0%
Prozentsatz des Ansetzens der Körner bei freier Bestäubung [2]: 95,0%

CCCCOC(=O)c1ccccc1C(=O)OCCCC [Beispiel 103, Phthalsäuredibutylester]
Ansetzen der Achänen bei freier Bestäubung ([3]; Präparat 1,0 Masse%, 6,0 kg/ha): 82,3
Prozentsatz der Sterilität ([3]; Präparat 1,0 Masse%, 6,0 kg/ha): 100,0%

CCOC(=O)c1ccccc1C(=O)OCC [Beispiel 104, Phthalsäurediäthylester]
Ansetzen der Achänen bei freier Bestäubung ([3]; Präparat 1,0 Masse%, 6,0 kg/ha): 80,0
Prozentsatz der Sterilität ([3]; Präparat 1,0 Masse%, 6,0 kg/ha): 100,0%

CC1C=CCCC1C(=O)O (stereo not drawn) [Beispiel 105, Kaliumsalz der 2-Methyl-3-zyklohexenkarbonsäu-re]
Ansetzen der Achänen bei freier Bestäubung ([3]; Präparat 1,0 Masse%, 6,0 kg/ha): 85,0
Prozentsatz der Sterilität ([3]; Präparat 1,0 Masse%, 6,0 kg/ha): 100,0%

CC1C=CCCC1C(=O)O (stereo not drawn) [Beispiel 106, Natriumsalz der 2-Methyl-3-zyklohexenkarbonsäure]
Ansetzen der Achänen bei freier Bestäubung ([3]; Präparat 1,0 Masse%, 6,0 kg/ha): 84,1
Prozentsatz der Sterilität ([3]; Präparat 1,0 Masse%, 6,0 kg/ha): 100,0%

COC(=O)C1CCC=CC1C (stereo not drawn) [Beispiel 107, 2-Methyl-3-zyklo-hexenkarbonsäuremethylester]
Ansetzen der Achänen bei freier Bestäubung [3, 6]: 83,8
Prozentsatz der Sterilität [3, 6]: 100,0%

CCCCOC(=O)c1ccccc1C(=O)OCCCC [Beispiel 108, Phthalsäuredibutylester]
Ansetzen der Achänen bei freier Bestäubung (Sonnenblume Linie VK-119; Präparat 0,2 Masse%, 1,2 kg/ha): 83,5
Prozentsatz der Sterilität (Sonnenblume Linie VK-119; Präparat 0,2 Masse%, 1,2 kg/ha): 100,0%

CCOC(=O)c1ccccc1C(=O)OCC [Beispiel 109, Phthalsäurediäthylester]
Ansetzen der Achänen bei freier Bestäubung (Sonnenblume Linie VK-119; Präparat 0,1 Masse%, 0,6 kg/ha): 82,5
Prozentsatz der Sterilität (Sonnenblume Linie VK-119; Präparat 0,1 Masse%, 0,6 kg/ha): 100,0%

CC1C=CCCC1C(=O)O (stereo not drawn) [Beispiel 110, Kaliumsalz der 2-Methyl-3-zyklohexenkarbonsäure]
Ansetzen der Achänen bei freier Bestäubung (Sonnenblume Linie VK-119; Präparat 0,1 Masse%, 0,6 kg/ha): 85,5
Prozentsatz der Sterilität (Sonnenblume Linie VK-119; Präparat 0,1 Masse%, 0,6 kg/ha): 100,0%

CC1C=CCCC1C(=O)O (stereo not drawn) [Beispiel 111, Natriumsalz der. 2-Methyl-3-zyklohexen-karbonsäure]
Ansetzen der Achänen bei freier Bestäubung (Sonnenblume Linie VK-119; Präparat 1,0 Masse%, 6,0 kg/ha): 85,0
Prozentsatz der Sterilität (Sonnenblume Linie VK-119; Präparat 1,0 Masse%, 6,0 kg/ha): 100,0%

COC(=O)C1CCC=CC1C (stereo not drawn) [Beispiel 112, 2-Methyl--3-zyklohexenkarbonsäuremethylester]
Ansetzen der Achänen bei freier Bestäubung (Sonnenblume Linie VK-119; [7]): 85,0
Prozentsatz der Sterilität (Sonnenblume Linie VK-119; [7]): 100,0%

CCCCOC(=O)c1ccccc1C(=O)OCCCC [Beispiel 113, Phthalsäuredibutylester]
Ansetzen der Achänen bei freier Bestäubung (Sonnenblume Linie BK-373; Präparat 0,2 Masse%, 1,2 kg/ha): 61,5
Prozentsatz der Sterilität (Sonnenblume Linie BK-373; Präparat 0,2 Masse%, 1,2 kg/ha): 100,0%

CC1C=CCCC1C(=O)[O-].[K+] (stereo not drawn) [Beispiel 114, Kaliumsalz der 2-Methyl-3-zyklohexenkarbonsäure]
Ansetzen der Achänen bei freier Bestäubung (Sonnenblume Linie BK-373; Präparat 0,1 Masse%, 0,6 kg/ha): 62,9
Prozentsatz der Sterilität (Sonnenblume Linie BK-373; Präparat 0,1 Masse%, 0,6 kg/ha): 100,0%

COC(=O)C1CCC=CC1C (stereo not drawn) [Beispiel 115, 2-Methyl--3-zyklohexenkarbonsäuremethylester]
Ansetzen der Achänen bei freier Bestäubung (Sonnenblume Linie BK-373; [7]): 65,7
Prozentsatz der Sterilität (Sonnenblume Linie BK-373; [7]): 100,0%

CCOC(=O)c1ccccc1C(=O)OCC [Beispiel 116, Phthalsäurediäthylester]
Ansetzen der Achänen bei freier Bestäubung (Sonnenblume Linie BK-373; Präparat 0,2 Masse%, 1,2 kg/ha): 64,6
Prozentsatz der Sterilität (Sonnenblume Linie BK-373; Präparat 0,2 Masse%, 1,2 kg/ha): 100,0%

CC1C=CCCC1C(=O)O (stereo not drawn) [Kaliumsalz der 2-Methyl-3-zyklohexenkarbonsäure]
LD50 [4]: 7660 mg/kg

CCCCOC(=O)c1ccccc1C(=O)OCCCC [Phthalsäuredibutylester]
LD50 [5]: 2840 mg/kg
LD50 ([4]; weiße Ratten, einmalige Einführung in den Magen (route printed for Phthalsäuredibutylester), read-out: LD50): 6670 mg/kg
